{"source": "patent US10064865B2", "about": "“Composition comprising phosphodiesterase type 5 inhibitor for inhibiting apoptosis of nerve cells” (ARIBIO INC., priority 2012, dated 2018)", "key": {"[1]": {"system": "neuron apoptosis-operated rats", "experiment": "Example 2 water tank task (water maze)", "type": "in vivo, Sprague-Dawley (SD) rats", "method": "Cognitive testing was conducted using the water tank task (J Neurosci Methods. 11:47-60(1984)). On the days 14 and 28 after neuron apoptosis, the rats were given a series of 3 trials, 10 min apart in a large dark-colored tank (150 cm in diameters×50 cm in height) filled with clear water at a temperature of 22.0±1.0° C. A 15×30 cm submerged platform (2 mm below water surface) was placed in the northwest quadrant of the pool. The release point was always the southern end of the pool. The rats were lowered into the pool facing the wall and were released. The swim paths of the rats for each trials were recorded with a computer interfaced camera tracking system (Smart junior, PanLab, Spain), and the distances (m) and times (sec) taken to reach the escape platform were measured.\nAll data were expressed as mean±standard deviation (S.D.) of ten rats. Multiple comparison tests for different dose groups were conducted. Variance homogeneity was examined using the Levene test (Levene A, Clin Otalary, 1981; 6:145-51). […] Statistical analyses were conducted using SPSS for Windows (Release 14K, SPSS Inc., USA; Ludbrook, Clin Exp Pharmacol Physiol, 1997; 24:294-6). In addition, the percent changes as compared with neuron apoptosis control and mirodenafil treated rats were calculated to help the understanding of the efficacy of test substances as follow Equation 6 and 7. Percentage Changes as Compared with Sham Control (%)=[((Data of neuron apoptosis control−Data of sham control rat)/Data of sham control rats)×100] [EQUATION 6] Percentage Changes as Compared with neuron apoptosis Control (%)=[((Data of test material treated rats−Data of neuron apoptosis control rats)/Data of neuron apoptosis control rats)×100] [EQUATION 7]"}, "[2]": {"system": "neuron apoptosis-operated rats", "experiment": "Example 1 hindlimb placing test", "type": "in vivo, Sprague-Dawley (SD) rats", "method": "Sensorimotor function was evaluated by use of limb placing de Ryck M et al., Stroke. 20:1383-90(1989)) and body swing (Borlongan and Sanberg, J Neurosci. 15:5372-8(1995)) tests. These tests were performed one day before neuron apoptosis to obtain a baseline and then at 1, 3, 7, 14, 21 and 28 days after neuron apoptosis. Behavioral tests were done before drug administration on days when both were scheduled. The investigator performing the surgery and behavioral assessments was blinded to treatment assignment.\nLimb placing test: Forelimb and hindlimb placement were assessed independently. For the forelimb placing test, the rats were held by their torso with their forepaws hanging free and moved slowly toward the edge of a tabletop, stopping short of touching the vibrissae (for vision-induced placing), touching the vibrissae (for vibrissae-induced placing), making light contact with the front of the forepaw to the edge of the tabletop (for tactile-induced placing), and pressing the forepaws to the edge of the table with increased pressure (for proprioceptive-induced placing). Hindlimb placing was conducted in the same manner as above but with tactile and proprioceptive stimulation applied to the front/top of each hindlimb. Each limb for placing in response to visual, vibrissae, tactile, and proprioceptive stimulation are scored in the following manner (A total of 12 points in forelimb placing test and 6 points in hindlimb placing test means maximal neurological deficit, and 0 points means normal performance):\nNormal performance=0 points;\nPerformance with unilateral limb=1 point;\nPerformance with a delay (2 seconds) and/or incomplete=2 point;\nAll data were expressed as mean±standard deviation (S.D.) of ten rats. Multiple comparison tests for different dose groups were conducted. Variance homogeneity was examined using the Levene test (Levene A, Clin Otalary, 1981; 6:145-51). […] Statistical analyses were conducted using SPSS (Release 14K, SPSS Inc., USA; Ludbrook, Clin Exp Pharmacol Physiol, 1997; 24:294-6). In addition, the percent changes between neuron apoptosis control and mirodenafil treated rats were calculated to help the understanding of the efficacy of test material as follow equation 3. Percentage changes as compared with neuron apoptosis control (%)=[((Data of mirodenafil treated groups−Data of neuron apoptosis control)/Data of neuron apoptosis control)×100] [EQUATION 3]"}, "[3]": {"conditions": "1 mg/kg from 24 hrs after surgery"}, "[4]": {"conditions": "1 mg/kg from 72 hrs after surgery"}, "[5]": {"conditions": "1 mg/kg from 168 hrs after surgery"}}, "note": "Marks after values point to notes of the source that are not given here.", "data": [{"compound": "CCCOc1ccc(S(=O)(=O)N2CCN(CCO)CC2)cc1-c1nc2c(CCC)cn(CC)c2c(=O)[nH]1", "note": "[Mirodenafil, mirodenafil]", "values": [{"measurement": "mean distances to reach the escape platform at 28 days, change as compared with neuron apoptosis control", "setting": "[1]; [3]", "value": "−26.45", "unit": "%"}, {"measurement": "mean time to reach the escape platform at 28 days, change as compared with neuron apoptosis control", "setting": "[1]; [3]", "value": "−24.49", "unit": "%"}, {"measurement": "mean distances to reach the escape platform at 28 days, change as compared with neuron apoptosis control", "setting": "[1]; [4]", "value": "−16.05", "unit": "%"}, {"measurement": "mean time to reach the escape platform at 28 days, change as compared with neuron apoptosis control", "setting": "[1]; [4]", "value": "−17.33", "unit": "%"}, {"measurement": "mean distances to reach the escape platform at 28 days, change as compared with neuron apoptosis control", "setting": "[1]; [5]", "value": "−6.42", "unit": "%"}, {"measurement": "mean time to reach the escape platform at 28 days, change as compared with neuron apoptosis control", "setting": "[1]; [5]", "value": "−5.36", "unit": "%"}, {"measurement": "Hindlimb placing test score", "setting": "[2]; 0.5 mg/kg group, day 1 after operation (before drug administration)", "value": "6.00 ± 0.00^d"}, {"measurement": "Hindlimb placing test score", "setting": "[2]; 0.5 mg/kg group, day −1 (baseline)", "value": "0.50 ± 0.71"}, {"measurement": "Hindlimb placing test score", "setting": "[2]; 0.5 mg/kg s.c. once a day, day 3 after operation", "value": "4.00 ± 0.82^a"}, {"measurement": "Hindlimb placing test score", "setting": "[2]; 0.5 mg/kg s.c. once a day, day 7 after operation", "value": "3.20 ± 0.79^a"}, {"measurement": "Hindlimb placing test score", "setting": "[2]; 0.5 mg/kg s.c. once a day, day 14 after operation", "value": "2.80 ± 0.63^d"}, {"measurement": "Hindlimb placing test score", "setting": "[2]; 0.5 mg/kg s.c. once a day, day 21 after operation", "value": "2.60 ± 0.70^a"}, {"measurement": "Hindlimb placing test score", "setting": "[2]; 0.5 mg/kg s.c. once a day, day 28 after operation", "value": "2.40 ± 0.97^a"}, {"measurement": "hindlimb placing test scores, change as compared with neuron apoptosis control", "setting": "[2]; 0.5 mg/kg, 3 days after surgery", "value": "−6.98", "unit": "%"}, {"measurement": "hindlimb placing test scores, change as compared with neuron apoptosis control", "setting": "[2]; 0.5 mg/kg, 7 days after surgery", "value": "−8.57", "unit": "%"}, {"measurement": "hindlimb placing test scores, change as compared with neuron apoptosis control", "setting": "[2]; 0.5 mg/kg, 14 days after surgery", "value": "−9.68", "unit": "%"}, {"measurement": "hindlimb placing test scores, change as compared with neuron apoptosis control", "setting": "[2]; 0.5 mg/kg, 21 days after surgery", "value": "−13.33", "unit": "%"}, {"measurement": "hindlimb placing test scores, change as compared with neuron apoptosis control", "setting": "[2]; 0.5 mg/kg, 28 days after surgery", "value": "−11.11", "unit": "%"}, {"measurement": "Hindlimb placing test score", "setting": "[2]; 1 mg/kg group, day 1 after operation (before drug administration)", "value": "6.00 ± 0.00^d"}, {"measurement": "Hindlimb placing test score", "setting": "[2]; 1 mg/kg group, day −1 (baseline)", "value": "0.30 ± 0.48"}, {"measurement": "Hindlimb placing test score", "setting": "[2]; 1 mg/kg s.c. once a day, day 3 after operation", "value": "3.50 ± 0.71^ac"}, {"measurement": "Hindlimb placing test score", "setting": "[2]; 1 mg/kg s.c. once a day, day 7 after operation", "value": "2.50 ± 0.71^ab"}, {"measurement": "Hindlimb placing test score", "setting": "[2]; 1 mg/kg s.c. once a day, day 14 after operation", "value": "2.10 ± 0.57^df"}, {"measurement": "Hindlimb placing test score", "setting": "[2]; 1 mg/kg s.c. once a day, day 21 after operation", "value": "1.70 ± 0.48^ab"}, {"measurement": "Hindlimb placing test score", "setting": "[2]; 1 mg/kg s.c. once a day, day 28 after operation", "value": "1.10 ± 0.74^ab"}, {"measurement": "hindlimb placing test scores, change as compared with neuron apoptosis control", "setting": "[2]; 1 mg/kg, 3 days after surgery", "value": "−18.80", "unit": "%"}, {"measurement": "hindlimb placing test scores, change as compared with neuron apoptosis control", "setting": "[2]; 1 mg/kg, 7 days after surgery", "value": "−28.57", "unit": "%"}, {"measurement": "hindlimb placing test scores, change as compared with neuron apoptosis control", "setting": "[2]; 1 mg/kg, 14 days after surgery", "value": "−32.26", "unit": "%"}, {"measurement": "hindlimb placing test scores, change as compared with neuron apoptosis control", "setting": "[2]; 1 mg/kg, 21 days after surgery", "value": "−43.33", "unit": "%"}, {"measurement": "hindlimb placing test scores, change as compared with neuron apoptosis control", "setting": "[2]; 1 mg/kg, 28 days after surgery", "value": "−59.26", "unit": "%"}, {"measurement": "Hindlimb placing test score", "setting": "[2]; 2 mg/kg group, day 1 after operation (before drug administration)", "value": "6.00 ± 0.00^d"}, {"measurement": "Hindlimb placing test score", "setting": "[2]; 2 mg/kg group, day −1 (baseline)", "value": "0.40 ± 0.52"}, {"measurement": "Hindlimb placing test score", "setting": "[2]; 2 mg/kg s.c. once a day, day 3 after operation", "value": "3.30 ± 0.67^ab"}, {"measurement": "Hindlimb placing test score", "setting": "[2]; 2 mg/kg s.c. once a day, day 7 after operation", "value": "2.30 ± 0.82^ab"}, {"measurement": "Hindlimb placing test score", "setting": "[2]; 2 mg/kg s.c. once a day, day 14 after operation", "value": "1.80 ± 1.03^de"}, {"measurement": "Hindlimb placing test score", "setting": "[2]; 2 mg/kg s.c. once a day, day 21 after operation", "value": "1.60 ± 0.84^ab"}, {"measurement": "Hindlimb placing test score", "setting": "[2]; 2 mg/kg s.c. once a day, day 28 after operation", "value": "1.10 ± 0.57^ab"}, {"measurement": "hindlimb placing test scores, change as compared with neuron apoptosis control", "setting": "[2]; 2 mg/kg, 3 days after surgery", "value": "−23.26", "unit": "%"}, {"measurement": "hindlimb placing test scores, change as compared with neuron apoptosis control", "setting": "[2]; 2 mg/kg, 7 days after surgery", "value": "−34.29", "unit": "%"}, {"measurement": "hindlimb placing test scores, change as compared with neuron apoptosis control", "setting": "[2]; 2 mg/kg, 14 days after surgery", "value": "−41.94", "unit": "%"}, {"measurement": "hindlimb placing test scores, change as compared with neuron apoptosis control", "setting": "[2]; 2 mg/kg, 21 days after surgery", "value": "−46.67", "unit": "%"}, {"measurement": "hindlimb placing test scores, change as compared with neuron apoptosis control", "setting": "[2]; 2 mg/kg, 28 days after surgery", "value": "−59.26", "unit": "%"}]}]}
